In series [1] the target is T1, α2-adrenoceptor (Rattus norvegicus, UniProt P22909).
T1 construct: transmitted via postsynaptic α2 -receptors in the central nervous system; from tissue; host or cells: whole anaesthetized rat (in vivo), central nervous system
T1 sequence (P22909 1-465): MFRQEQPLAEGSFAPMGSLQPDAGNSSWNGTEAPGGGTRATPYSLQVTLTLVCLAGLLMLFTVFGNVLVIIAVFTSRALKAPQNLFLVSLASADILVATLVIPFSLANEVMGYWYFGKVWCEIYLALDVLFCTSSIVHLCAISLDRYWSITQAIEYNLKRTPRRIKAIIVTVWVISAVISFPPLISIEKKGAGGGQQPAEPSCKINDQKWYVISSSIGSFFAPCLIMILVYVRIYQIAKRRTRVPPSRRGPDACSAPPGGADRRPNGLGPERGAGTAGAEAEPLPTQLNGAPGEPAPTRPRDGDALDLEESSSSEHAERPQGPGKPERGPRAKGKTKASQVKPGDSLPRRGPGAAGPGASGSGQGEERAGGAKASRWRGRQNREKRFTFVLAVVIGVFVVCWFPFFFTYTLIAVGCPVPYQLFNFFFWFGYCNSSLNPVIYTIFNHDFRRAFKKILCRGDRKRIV
Nature of the series: Relative peroral bioavailability (α2-blocking potency after peroral vs parenteral administration). Particulars: equipotent doses 0.3 to 3 mg/kg, 1 hour before anaesthesia. The series is classed as in vivo. How it is done: The relative bioavailability of the antagonists when administered orally was evaluated by comparing the potency of their α2 -blocking effect after peroral and parenteral administration. The antagonists were administered at equipotent doses (0.3 to 3 mg/kg) to groups of rats 1 hour before induction of anaesthesia and challenge with detomidine as described above in relation to the measurement of duration of action.

Series [2] has as its target T2, α2-adrenoceptor (Mus musculus, UniProt Q01338).
T2 construct: isolated, electrically stimulated mouse vas deferens preparation; from tissue; host or cells: isolated mouse vas deferens
T2 sequence (Q01338 1-465): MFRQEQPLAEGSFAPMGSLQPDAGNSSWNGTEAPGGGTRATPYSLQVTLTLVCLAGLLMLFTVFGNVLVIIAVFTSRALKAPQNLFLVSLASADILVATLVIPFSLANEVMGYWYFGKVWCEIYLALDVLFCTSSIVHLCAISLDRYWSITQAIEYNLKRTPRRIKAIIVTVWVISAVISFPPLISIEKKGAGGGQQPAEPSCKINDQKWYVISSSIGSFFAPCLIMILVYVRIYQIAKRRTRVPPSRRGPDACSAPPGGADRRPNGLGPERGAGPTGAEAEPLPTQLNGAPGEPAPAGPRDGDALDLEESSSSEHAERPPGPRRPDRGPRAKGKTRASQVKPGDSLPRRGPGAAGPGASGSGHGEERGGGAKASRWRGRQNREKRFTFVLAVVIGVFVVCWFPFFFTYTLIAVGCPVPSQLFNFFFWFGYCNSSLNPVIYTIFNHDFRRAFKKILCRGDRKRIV
Put plainly: α2-Antagonism in vitro, isolated electrically stimulated mouse vas deferens (vs detomidine). The protocol: 1. α2 -Antagonism in vitro
α2 -Antagonism was determined by means of isolated, electrically stimulated mouse vas deferens preparation (Marshall et al., Br. J. Pharmac. 62, 147, 151, 1978). In this model, α2 -agonist (detomidine) blocks electrically stimulated muscular contractions and the effect of the α2 -antagonist is seen by administering it prior to the agonist and by determining its pA2 value.

Series [3] has as its system α1-adrenoceptor. Nature of the series: α1-Antagonism in vitro, isolated epididymal portion of rat vas deferens (vs phenylephrine). Particulars: contraction induced by phenylephrine. The protocol:
(§1) To obtain information also on the selectivity of the antagonist between α1 - and α2 -receptors, its ability to inhibit or stimulate α1 -receptors was determined by means of isolated epididymal portion of rat vas deferens. The reference substances were now phenylephrine, a known α1 -agonist, and prazosin, a known α1 -antagonist. To determine α1 -antagonism, muscular contraction was induced by phenylephrine and the pA2 value of the studied compound was determined as above α1 -Agonist effect is presented as the pD2 value (negative logarithm of the molar concentration of the compound producing 50 percent of maximal contraction).

Series [4] has as its target T3, α1-adrenoceptor (Rattus norvegicus, UniProt P43140).
T3 sequence (P43140 1-466): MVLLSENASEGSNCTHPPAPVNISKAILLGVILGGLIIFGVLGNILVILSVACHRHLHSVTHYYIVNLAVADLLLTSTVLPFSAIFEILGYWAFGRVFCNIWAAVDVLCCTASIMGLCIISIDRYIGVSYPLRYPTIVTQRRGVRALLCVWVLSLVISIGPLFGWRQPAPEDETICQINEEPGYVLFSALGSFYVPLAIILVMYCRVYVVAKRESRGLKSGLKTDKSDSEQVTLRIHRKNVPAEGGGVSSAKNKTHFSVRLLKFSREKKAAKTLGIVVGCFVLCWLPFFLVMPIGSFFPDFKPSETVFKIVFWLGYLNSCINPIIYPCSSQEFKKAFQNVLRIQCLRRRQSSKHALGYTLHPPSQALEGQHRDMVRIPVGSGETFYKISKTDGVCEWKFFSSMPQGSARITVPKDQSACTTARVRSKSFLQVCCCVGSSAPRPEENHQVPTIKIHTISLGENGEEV
Particulars: for α1-Agonism (pD2) rat vas deferens / EC50: negative logarithm of molar concentration producing 50 percent of maximal contraction; for EC50: read-out: α1-Agonism (pD2) rat vas deferens (converted). How it is done:
as §1

The subject of series [5] is α2-adrenoceptor. Put plainly: α2-Adrenoceptor antagonism in vivo, reversal of detomidine-induced mydriasis in anaesthetized rat. The following applies: dose producing 50 per cent reversal of detomidine-induced mydriasis. How it is done: 2. α2 -Adrenoceptor antagonism in vivo
It is known that in the rat α2 -agonists induce dilatation of the pupil (mydriasis) which effect is transmitted via postsynaptic α2 -receptors in the central nervous system. In anaesthetized rat, a standard dose of an α2 -agonist, detomidine, was administered intravenously. Thereafter increasing doses of the studied antagonists were injected intravenously and the reversal of detomidine-induced mydriasis was followed. The ED50 value of the antagonist, i.e. the dose producing a 50 per cent reversal, was determined.

Series [6] has as its system α2-adrenoceptor. Put plainly: Duration of the α2-blocking action (antagonism of detomidine mydriasis after oral pretreatment). Particulars: rat, equipotent doses, pretreatment 1, 2, 4, 7 or 16 hours, time for antagonist effect to fall by half. The series is classed as in vivo. The protocol: The duration of the α2 -blocking action of the compounds was determined as follows: the antagonists were administered orally at equipotent doses to groups of 4 rats 1, 2, 4, 7 or 16 hours before induction of anaesthesia and challenge with cumulative i.v. dosing of detomidine. By calculating the percentage antagonism of the mydriatic effect of 0.1 mg/kg detomidine for each pretreatment group, a time-effect relationship was established. This in turn permitted the measurement of the time taken for the antagonist effect to fall by half.

For a further series, the system named is rats. Put plainly: Effects on learning and memory in linear arm maze task. Particulars: for learning and memory effect (overall): adult rats; for time to solve the task / number of errors (reentries into arms already visited): rats; for time to solve the task: effect on learning and speed to make correct choices; for number of errors (reentries into arms already visited): effect on working memory. The series is classed as in vivo, rat. The protocol:
The linear arm maze is a modified version of radial arm maze, which is a generally used memory test in rats. […] Water was also used as control. All injections were made in a volume 1 ml/kg.
Apparatus: The maze was a wooden platform in a shape of two crosses one after another. The stem (starting arm) was 90 cm long and 12 cm wide. The five other arms (goal arms) were 50 cm long and 12 cm wide. Four goal arms were situated perpendicularly to the stem and to the fifth arm which located opposite to the stem. On either side of the stem and the arms were edges, 2.0 cm high. At the end of each goal arm a hole 1 cm deep and 3 cm in diameter, served as a food cup. The starting platform (20×20 cm) was separated from the stem by a quillotine door. The door was 12 cm high and 7 cm wide. The door frame was 20 cm high and 20 cm wide. The maze was elevated 31 cm above the floor, in a low-lighted test room which contained other objects as well as the test apparatus. The holes at the end of the goal arms were baited with three pellets of prize food (45 mg pellets Bio Serve Inc.).
Procedures: Two days prior to training, animals were placed on a food deprivation schedule that reduces their body weights to 90% of initial weights. During these days the rats were habituated to handling (three times/day), test room and prize food. On the second day they were also habituated to the unbaited maze: three to five animals from the same cage at the same time for ten minutes. On the third day the goal arms were baited, and the teaching trial, one rat at a time, was carried out. The rat received drug or distilled water and […] later it was placed in the starting platform. After ten seconds the door was opened and the rat was allowed to explore the maze until all the baits were found. The time to find all the baits and reentries made into already visited arms was recorded. This time every rate was allowed to stay in the maze at least for five minutes. On the next day the proper memory and learning testing began and continued for four days (testing days 1 to 4). Rats were given eight trials, two per day. Inter trial interval was 50 minutes. Drugs or distilled water were administered 30 minutes before the first trial of the day. Otherwise testing trials were identical to the teaching trial. All the observations were done blind so that test solutions were in coded flasks.
Statistical analysis: The results were expressed as mean time/trial/day (seconds) and mean errors/trial/day. The analysis of variance for the repeated measurements (ANOVA) was used to compare the drugs' and the testing days' effects on learning and memory.

The nature of series [7]: Acute toxicity (LD50) using mice. The following applies: mouse, in vivo, po. The protocol: For example, the LD50 for 7-(4-(5-fluoro-2,3-dihydro-1H-inden-2-yl)-1H-imidazole) is 100 mg/kg (p.o.).
The mark [8] stands for this setting: antagonist given prior to detomidine, mouse vas deferens, read-out: α2-Antagonism (pA2 vs detomidine) mouse vas deferens (converted).

Where two headings read alike, the source gives them in different places.

For the compound `CCC1(c2c[nH]cn2)Cc2ccc(F)cc2C1` (stereo not drawn) [Compound 1, 4-(2-Ethyl-5-fluoro-2,3-dihydro-1H-inden-2-yl)-1H-imidazole], the Peroral bioavailability on α2-adrenoceptor [1] is on record as 81. In addition, the Kb at α2-adrenoceptor [2] (setting [8]) was 6.31 nM. Moreover, the “α1-Antagonism (pA2 vs phenylephrine) rat vas deferens” value with α1-adrenoceptor [3] was “no effect”. Also, the “α1-Agonism (pD2) rat vas deferens” value on α1-adrenoceptor [4] is on record as “no effect”. Also, in the series with α2-adrenoceptor [5], the “α2-Antagonism ED50 (iv)” value was found to be 0.015 mg/kg. Also, the t1/2 of α2-antagonism in the series on α2-adrenoceptor [6] came to 3 h.

Consider `CC1(c2c[nH]cn2)Cc2ccc(F)cc2C1` (stereo not drawn) [Compound 2, 4-(5-Fluoro-2,3-dihydro-2-methyl-1H-inden-2-yl)-1H-imidazole], for which the Kb at α2-adrenoceptor [2] (setting [8]) is 50.1 nM.

Turning to `CCC1(c2c[nH]cn2)Cc2cc(F)c(F)cc2C1` [Compound 3, 4-(2-Ethyl-5,6-difluoro-2,3-dihydro-1H-inden-2-yl)-1H-imidazole], the Kb at α2-adrenoceptor [2] (setting [8]) is 63.1 nM.

In the case of `CCC1(c2c[nH]cn2)Cc2ccc(F)cc2C1=O` (stereo not drawn) [Compound 4, 2-Ethyl-6-fluoro-2,3-dihydro-2-(1H-imidazol-4-yl)-1H-inden-1-one], the Peroral bioavailability on α2-adrenoceptor [1] was 89. Further, on α2-adrenoceptor [2] (setting [8]), the Kb was 1260 nM. Moreover, in the series with α1-adrenoceptor [3], the “α1-Antagonism (pA2 vs phenylephrine) rat vas deferens” value is listed as “no effect”. In the series on rats (3 mg/kg p.o. (hydrochloride)), the “learning and memory effect (overall)” value was “learning and memory enhancing effects”; the “time to solve the task” value was “decreased the time to solve the task”; the “number of errors (reentries into arms already visited)” value (“number of errors” below) was “decreased number of errors”. In addition, the “α1-Agonism (pD2) rat vas deferens” value at α1-adrenoceptor [4] is given as “no effect”. For the same compound, in the series with α2-adrenoceptor [5], the “α2-Antagonism ED50 (iv)” value was determined as 0.3 mg/kg. The t1/2 of α2-antagonism in the series on α2-adrenoceptor [6] was 6 h.

In the case of `CCC1(c2c[nH]cn2)Cc2ccc(Cl)cc2C1=O` (stereo not drawn) [Compound 5, 6-Chloro-2-ethyl-2,3-dihydro-2-(1H-imidazol-4-yl)-1H-inden-1-one], the Kb on α2-adrenoceptor [2] (setting [8]) was 251 nM.

The compound `Fc1cccc2c1CC(c1c[nH]cn1)C2` (stereo not drawn) [Compound 6, 4-(4-Fluoro-2,3-dihydro-1H-inden-2-yl)-1H-imidazole] showed a Kb on α2-adrenoceptor [2] of 7.94 nM. Also, the EC50 at α1-adrenoceptor [4] was 316 nM. In addition, at α1-adrenoceptor [4] (rat vas deferens), the “α1-Agonism, type of agonist (full/partial)” value is recorded as “full agonist”.

The term LD50 denotes the dose expected to kill half of the subjects tested. Regarding `Fc1ccc2c(c1)CC(c1c[nH]cn1)C2` (stereo not drawn) [Compound 7, 4-(5-Fluoro-2,3-dihydro-1H-inden-2-yl)-1H-imidazole], at α2-adrenoceptor [1], the Peroral bioavailability amounted to 80. The compound also had a Kb at α2-adrenoceptor [2] of 10 nM. In series [7], this compound yielded a median lethal dose (LD50) of 100 mg/kg. Besides, in the series on rats (0.3 mg/kg s.c. (hydrochloride)), the “learning and memory effect (overall)” value was “learning and memory enhancing effects”; the “time to solve the task” value was “decreased the time to solve the task”; the “number of errors” value is on record as “decreased number of errors”. In addition, the EC50 at α1-adrenoceptor [4] was 3160 nM. In the series with α2-adrenoceptor [5], the “α2-Antagonism ED50 (iv)” value was 0.01 mg/kg. The t1/2 of α2-antagonism in the series with α2-adrenoceptor [6] is 7 h.

As for `CCC1(c2c[nH]cn2)Cc2ccc(O)cc2C1` (stereo not drawn) [Compound 8, 2-Ethyl-2-(1H-imidazol-4-yl)-5-indanol], the Kb on α2-adrenoceptor [2] (setting [8]) is 63.1 nM.

Regarding `CCC1(c2cnc[nH]2)Cc2ccccc2C1` [atipamezole, reference compound], the Kb at α2-adrenoceptor [2] is 7.94 nM. In addition, in the series on α1-adrenoceptor [3], the “α1-Antagonism (pA2 vs phenylephrine) rat vas deferens” value is reported as 5.0. In addition, in the series on rats (0.3 mg/kg s.c. (hydrochloride)), the “learning and memory effect (overall)” value is “learning and memory enhancing effects”; the “time to solve the task” value is recorded as “decreased the time to solve the task”; the “number of errors” value is reported as “decreased number of errors”. In addition, the “α1-Agonism (pD2) rat vas deferens” value at α1-adrenoceptor [4] was “no effect”. In addition, the “α2-Antagonism ED50 (iv)” value with α2-adrenoceptor [5] is 0.01 mg/kg. The t1/2 of α2-antagonism with α2-adrenoceptor [6] was 2 h.

The values are drawn from US5498623A, “4(5) substituted imidazoles and their preparation and use” (Orion-yhtyma Oy, priority 1991, dated 1996).
